This is an account of results in ChEMBL document CHEMBL2062454, “SAR studies around a series of triazolopyridines as potent and selective PI3Kγ inhibitors” (Bioorg Med Chem Lett, 2012).

In one data set the target is Cytochrome P450 2D6 (Homo sapiens, UniProt P10635). Kind of data set: Inhibition of CYP2D6 up to 25 uM. Format: ADME.
Data set [1] deals with Phosphatidylinositol 4,5-bisphosphate 3-kinase catalytic subunit alpha isoform (Homo sapiens, UniProt P42336). The data set can be described thus: Inhibition of PI3Kalpha by high throughput chemoproteomics binding assay.
Data set [2] relates to Salmonella typhimurium. The data set can be described thus: Mutagenic activity in Salmonella typhimurium TA98 at 1667 ug/plate in absence of liver S9 fraction. To be noted: salmonella enterica subsp. enterica serovar typhimurium. It counts as toxicity, organism-based.
The species entered for data set [3] is Homo sapiens. The data set can be described thus: Selectivity ratio of IC50 for PI3Kdelta to IC50 for PI3Kgamma.
Data set [4] deals with Salmonella typhimurium. The data set can be described thus: Mutagenic activity in Salmonella typhimurium TA1537 at 1667 ug/plate in presence of liver S9 fraction. Format: toxicity, organism-based. To be noted: salmonella enterica subsp. enterica serovar typhimurium.
In data set [5] the target is Voltage-gated inwardly rectifying potassium channel KCNH2 (Homo sapiens, UniProt Q12809). The data set can be described thus: Inhibition of human ERG up to 100 uM by Q-patch assay.
Data set [6] in a line: Oral bioavailability in rat at 10 mg/kg. It counts as ADME, organism-based. The note with it: in vivo.
The nature of data set [7]: Clearance in rat at 0.2 mg/kg, iv and 10 mg/kg, po. Format: ADME, organism-based. The note with it: in vivo.
Another data set has as its system Caco-2. Kind of data set: Permeability of the compound in human Caco2 cells. Format: ADME, cell-based. In general terms: Caco-2 monolayers are a common model of the intestinal barrier.
The species named for data set [8] is Homo sapiens. The data set can be described thus: Selectivity ratio of IC50 for PI3Kbeta to IC50 for PI3Kgamma.
The target of another data set is Cytochrome P450 2C9 (Homo sapiens, UniProt P11712). Kind of data set: Inhibition of CYP2C9 up to 25 uM. Format: ADME.
Another data set relates to Mus musculus. Kind of data set: Antiarthritic activity in DBA/B10 mouse collagen-induced arthritis model assessed as reduction of clinical score at 10 mg/kg, po administered twice per day for every 12 hrs. Format: functional. Also noted: scale not given: the % may be the effect or the level left.
Data set [9] relates to Salmonella typhimurium. Kind of data set: Mutagenic activity in Salmonella typhimurium TA1537 at 1667 ug/plate in absence of liver S9 fraction. It counts as toxicity, organism-based. The note with it: salmonella enterica subsp. enterica serovar typhimurium.
Data set [10] relates to Salmonella typhimurium. Kind of data set: Mutagenic activity in Salmonella typhimurium TA100 at 1667 ug/plate in presence of liver S9 fraction. The note with it: salmonella enterica subsp. enterica serovar typhimurium. It counts as toxicity, organism-based.
Data set [11] has as its system Salmonella typhimurium. The data set can be described thus: Mutagenic activity in Salmonella typhimurium TA98 at 1667 ug/plate in presence of liver S9 fraction. Format: toxicity, organism-based. To be noted: salmonella enterica subsp. enterica serovar typhimurium.
Data set [12] relates to Salmonella typhimurium. The data set can be described thus: Mutagenic activity in Salmonella typhimurium TA100 at 1667 ug/plate in absence of liver S9 fraction. Format: toxicity, organism-based. The note with it: salmonella enterica subsp. enterica serovar typhimurium.
The target of data set [13] is Phosphatidylinositol 4,5-bisphosphate 3-kinase catalytic subunit beta isoform (Homo sapiens, UniProt P42338). Kind of data set: Inhibition of PI3Kbeta by high throughput chemoproteomics binding assay.
The nature of data set [14]: Thermodynamic solubility of the compound. The note with it: read-out: Therm_solubility. It counts as physicochemical.
A further data set deals with Cytochrome P450 3A4 (Homo sapiens, UniProt P08684). The data set can be described thus: Inhibition of CYP3A4 up to 25 uM. It counts as ADME.
The target of a further data set is T1, Cytochrome P450 1A (Homo sapiens, UniProt P04798+P05177).
T1 sequence (P04798 whole entry): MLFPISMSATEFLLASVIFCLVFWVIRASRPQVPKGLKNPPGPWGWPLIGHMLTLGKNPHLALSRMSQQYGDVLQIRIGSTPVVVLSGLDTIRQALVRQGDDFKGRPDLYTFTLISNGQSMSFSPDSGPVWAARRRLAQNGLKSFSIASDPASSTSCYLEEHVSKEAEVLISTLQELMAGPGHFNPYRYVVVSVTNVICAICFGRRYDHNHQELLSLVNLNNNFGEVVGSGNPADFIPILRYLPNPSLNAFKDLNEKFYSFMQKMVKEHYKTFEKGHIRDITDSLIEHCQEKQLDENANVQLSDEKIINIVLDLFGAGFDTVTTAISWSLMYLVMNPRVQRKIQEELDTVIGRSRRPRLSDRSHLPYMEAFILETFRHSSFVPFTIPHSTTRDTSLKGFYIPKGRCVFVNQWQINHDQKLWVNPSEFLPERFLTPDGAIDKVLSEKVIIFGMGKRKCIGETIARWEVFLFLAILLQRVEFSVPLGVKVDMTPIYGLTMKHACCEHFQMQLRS
T1 sequence (P05177 whole entry): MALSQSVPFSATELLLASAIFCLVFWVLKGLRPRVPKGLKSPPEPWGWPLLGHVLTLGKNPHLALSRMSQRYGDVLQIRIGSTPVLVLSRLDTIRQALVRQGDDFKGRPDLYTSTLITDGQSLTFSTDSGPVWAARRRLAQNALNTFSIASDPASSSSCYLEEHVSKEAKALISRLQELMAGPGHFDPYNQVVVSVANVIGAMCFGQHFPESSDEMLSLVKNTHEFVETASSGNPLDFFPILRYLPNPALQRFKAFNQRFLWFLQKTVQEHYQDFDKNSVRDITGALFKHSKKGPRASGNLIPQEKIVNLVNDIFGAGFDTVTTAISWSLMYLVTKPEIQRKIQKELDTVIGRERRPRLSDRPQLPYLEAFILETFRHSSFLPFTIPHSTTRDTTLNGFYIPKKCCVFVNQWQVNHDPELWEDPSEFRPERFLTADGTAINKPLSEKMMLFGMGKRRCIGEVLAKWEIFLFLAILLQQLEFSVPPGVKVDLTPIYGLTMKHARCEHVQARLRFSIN
Kind of data set: Inhibition of CYP1A up to 25 uM. Format: ADME.

The target of a further data set is Cytochrome P450 2C19 (Homo sapiens, UniProt P33261). The data set can be described thus: Inhibition of CYP2C19 up to 25 uM. It counts as ADME.
Data set [15] deals with T2, Phosphatidylinositol 4,5-bisphosphate 3-kinase catalytic subunit delta isoform (Homo sapiens, UniProt O00329).
T2 sequence (O00329 whole entry): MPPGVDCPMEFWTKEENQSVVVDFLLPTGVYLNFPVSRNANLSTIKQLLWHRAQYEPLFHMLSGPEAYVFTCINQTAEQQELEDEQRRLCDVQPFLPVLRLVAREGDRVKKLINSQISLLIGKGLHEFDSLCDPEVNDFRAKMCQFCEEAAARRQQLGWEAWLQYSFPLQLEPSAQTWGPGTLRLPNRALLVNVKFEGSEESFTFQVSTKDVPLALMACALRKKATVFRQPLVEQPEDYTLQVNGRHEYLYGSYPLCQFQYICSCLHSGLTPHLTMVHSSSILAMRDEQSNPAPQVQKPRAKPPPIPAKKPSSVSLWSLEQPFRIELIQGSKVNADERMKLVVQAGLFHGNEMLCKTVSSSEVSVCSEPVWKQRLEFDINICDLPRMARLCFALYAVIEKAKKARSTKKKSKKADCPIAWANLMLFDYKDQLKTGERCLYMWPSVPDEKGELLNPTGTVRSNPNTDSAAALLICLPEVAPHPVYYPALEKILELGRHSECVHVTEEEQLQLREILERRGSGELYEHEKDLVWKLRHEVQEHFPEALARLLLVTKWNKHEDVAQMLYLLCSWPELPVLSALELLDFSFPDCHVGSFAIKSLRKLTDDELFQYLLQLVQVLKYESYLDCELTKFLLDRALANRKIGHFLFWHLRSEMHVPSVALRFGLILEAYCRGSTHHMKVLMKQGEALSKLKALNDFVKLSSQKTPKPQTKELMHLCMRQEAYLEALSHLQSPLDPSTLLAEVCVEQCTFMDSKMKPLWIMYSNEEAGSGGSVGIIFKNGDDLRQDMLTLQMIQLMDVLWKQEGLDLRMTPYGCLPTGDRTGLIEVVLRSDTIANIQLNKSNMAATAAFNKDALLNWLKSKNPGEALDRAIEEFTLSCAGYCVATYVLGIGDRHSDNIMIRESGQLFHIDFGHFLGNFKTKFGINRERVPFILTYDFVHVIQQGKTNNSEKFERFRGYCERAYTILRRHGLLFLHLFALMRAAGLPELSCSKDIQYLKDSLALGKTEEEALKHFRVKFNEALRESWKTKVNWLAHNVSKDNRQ
Kind of data set: Inhibition of PI3Kdelta by high throughput chemoproteomics binding assay.

For data set [16], the target named is T3, Phosphatidylinositol 4,5-bisphosphate 3-kinase catalytic subunit gamma isoform (Homo sapiens, UniProt P48736). Kind of data set: Inhibition of PI3Kgamma by high throughput chemoproteomics binding assay.
Data set [17] can be described thus: Protein binding in plasma. Format: ADME, cell-free. To be noted: read-out: PPB.
Data set [18] deals with T3, Phosphatidylinositol 4,5-bisphosphate 3-kinase catalytic subunit gamma isoform. The data set can be described thus: Inhibition of PI3Kgamma assessed as inhibition of C5a-induced AKT phosphorylation at Ser473 by cell based assay.
Data set [19] can be described thus: Half life in rat microsomes. It counts as ADME, Microsome.
Data set [20] in a line: Half life in mouse microsomes. Format: ADME, Microsome.
Data set [21] in a line: Half life in human microsomes. Format: ADME, Microsome.
Data set [22] can be described thus: Clearance in rat at 1 mg/kg, iv and 5 mg/kg, po. To be noted: in vivo. Format: ADME, organism-based.
Data set [23] in a line: Oral bioavailability in rat at 5 mg/kg. Format: ADME, organism-based. The note with it: in vivo.

Molecules are shown by their SMILES. Values after ≈ are worked out from the molar mass of the structure shown.

T3 sequence (P48736 whole entry, canonical isoform): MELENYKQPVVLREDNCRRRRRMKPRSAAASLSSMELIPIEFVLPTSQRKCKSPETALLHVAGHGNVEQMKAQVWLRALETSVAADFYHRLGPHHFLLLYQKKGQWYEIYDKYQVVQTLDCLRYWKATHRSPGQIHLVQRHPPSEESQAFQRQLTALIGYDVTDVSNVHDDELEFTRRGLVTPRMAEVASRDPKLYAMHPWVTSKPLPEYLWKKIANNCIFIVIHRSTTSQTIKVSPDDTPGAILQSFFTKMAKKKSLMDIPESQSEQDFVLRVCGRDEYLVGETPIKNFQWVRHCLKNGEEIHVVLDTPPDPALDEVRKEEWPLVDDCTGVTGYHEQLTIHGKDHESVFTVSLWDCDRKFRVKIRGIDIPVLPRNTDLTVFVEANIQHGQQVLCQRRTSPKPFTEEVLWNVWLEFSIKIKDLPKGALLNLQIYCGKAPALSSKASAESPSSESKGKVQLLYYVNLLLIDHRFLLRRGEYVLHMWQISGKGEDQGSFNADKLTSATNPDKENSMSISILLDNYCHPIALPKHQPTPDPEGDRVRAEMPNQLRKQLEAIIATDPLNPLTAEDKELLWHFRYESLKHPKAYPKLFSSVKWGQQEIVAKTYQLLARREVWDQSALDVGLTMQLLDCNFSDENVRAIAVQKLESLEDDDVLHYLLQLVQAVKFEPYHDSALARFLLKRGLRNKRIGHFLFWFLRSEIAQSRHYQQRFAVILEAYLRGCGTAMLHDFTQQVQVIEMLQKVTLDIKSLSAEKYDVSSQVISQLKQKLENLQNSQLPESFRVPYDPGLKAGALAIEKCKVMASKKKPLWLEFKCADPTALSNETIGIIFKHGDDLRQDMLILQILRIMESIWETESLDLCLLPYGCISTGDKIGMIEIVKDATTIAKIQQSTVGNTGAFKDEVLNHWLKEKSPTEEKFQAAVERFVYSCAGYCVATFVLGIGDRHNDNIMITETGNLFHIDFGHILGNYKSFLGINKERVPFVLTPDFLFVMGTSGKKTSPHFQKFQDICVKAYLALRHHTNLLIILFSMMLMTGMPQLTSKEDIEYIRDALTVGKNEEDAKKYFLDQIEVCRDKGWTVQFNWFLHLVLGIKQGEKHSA
Phosphatidylinositol 4,5-bisphosphate 3-kinase catalytic subunit alpha isoform, sequence (P42336 whole entry, canonical isoform): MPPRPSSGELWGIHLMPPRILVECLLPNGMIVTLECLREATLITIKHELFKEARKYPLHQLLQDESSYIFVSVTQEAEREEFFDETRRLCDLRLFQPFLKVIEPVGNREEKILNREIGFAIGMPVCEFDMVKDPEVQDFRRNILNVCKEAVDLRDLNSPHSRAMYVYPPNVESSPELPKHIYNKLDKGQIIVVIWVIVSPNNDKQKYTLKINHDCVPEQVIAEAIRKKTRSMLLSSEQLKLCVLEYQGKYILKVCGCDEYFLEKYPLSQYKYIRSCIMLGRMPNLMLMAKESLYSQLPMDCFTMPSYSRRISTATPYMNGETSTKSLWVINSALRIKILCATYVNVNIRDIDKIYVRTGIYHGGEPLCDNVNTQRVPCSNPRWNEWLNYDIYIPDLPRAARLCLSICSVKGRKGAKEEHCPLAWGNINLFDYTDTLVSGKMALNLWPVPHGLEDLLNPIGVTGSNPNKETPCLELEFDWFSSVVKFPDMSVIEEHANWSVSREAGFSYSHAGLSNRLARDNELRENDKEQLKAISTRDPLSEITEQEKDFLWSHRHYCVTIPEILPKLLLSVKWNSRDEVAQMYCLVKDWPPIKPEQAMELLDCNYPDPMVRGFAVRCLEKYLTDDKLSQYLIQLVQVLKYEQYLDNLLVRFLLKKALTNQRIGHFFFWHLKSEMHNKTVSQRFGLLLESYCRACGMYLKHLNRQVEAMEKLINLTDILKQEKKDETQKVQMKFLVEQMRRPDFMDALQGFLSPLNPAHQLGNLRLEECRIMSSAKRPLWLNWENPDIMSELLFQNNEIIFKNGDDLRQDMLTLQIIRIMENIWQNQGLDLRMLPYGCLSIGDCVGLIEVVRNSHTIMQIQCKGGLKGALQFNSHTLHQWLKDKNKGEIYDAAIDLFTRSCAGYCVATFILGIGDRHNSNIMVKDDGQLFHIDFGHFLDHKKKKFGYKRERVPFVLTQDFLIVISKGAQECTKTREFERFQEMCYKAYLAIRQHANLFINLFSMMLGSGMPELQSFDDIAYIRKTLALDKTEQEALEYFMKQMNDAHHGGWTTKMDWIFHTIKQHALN
Cytochrome P450 3A4, sequence (P08684 whole entry): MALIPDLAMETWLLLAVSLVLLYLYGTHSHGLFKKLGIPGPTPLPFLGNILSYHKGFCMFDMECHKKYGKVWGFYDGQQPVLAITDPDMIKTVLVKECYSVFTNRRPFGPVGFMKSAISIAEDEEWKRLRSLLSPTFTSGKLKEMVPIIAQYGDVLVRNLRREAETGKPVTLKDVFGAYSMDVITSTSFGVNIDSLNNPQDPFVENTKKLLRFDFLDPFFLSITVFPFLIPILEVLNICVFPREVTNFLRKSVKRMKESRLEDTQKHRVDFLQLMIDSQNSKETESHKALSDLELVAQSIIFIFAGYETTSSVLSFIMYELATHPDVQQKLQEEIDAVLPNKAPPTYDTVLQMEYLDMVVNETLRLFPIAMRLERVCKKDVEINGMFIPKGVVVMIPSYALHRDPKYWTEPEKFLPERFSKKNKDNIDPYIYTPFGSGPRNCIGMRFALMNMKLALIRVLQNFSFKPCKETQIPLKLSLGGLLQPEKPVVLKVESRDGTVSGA
Cytochrome P450 2C19, sequence (P33261 whole entry, canonical isoform): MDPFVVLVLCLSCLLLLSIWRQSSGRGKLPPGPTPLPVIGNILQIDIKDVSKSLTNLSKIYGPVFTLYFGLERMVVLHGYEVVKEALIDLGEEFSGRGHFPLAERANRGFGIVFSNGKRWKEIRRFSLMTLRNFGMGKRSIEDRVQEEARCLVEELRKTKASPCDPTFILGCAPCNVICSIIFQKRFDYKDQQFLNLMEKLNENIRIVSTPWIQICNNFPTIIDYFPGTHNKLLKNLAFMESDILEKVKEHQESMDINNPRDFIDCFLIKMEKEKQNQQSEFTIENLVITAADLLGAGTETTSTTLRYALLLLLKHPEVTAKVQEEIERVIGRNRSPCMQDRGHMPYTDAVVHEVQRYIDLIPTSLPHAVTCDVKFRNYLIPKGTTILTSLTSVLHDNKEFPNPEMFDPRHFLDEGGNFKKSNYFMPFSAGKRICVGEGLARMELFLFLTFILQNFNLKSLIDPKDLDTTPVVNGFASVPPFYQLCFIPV
Cytochrome P450 2D6, sequence (P10635 whole entry, canonical isoform): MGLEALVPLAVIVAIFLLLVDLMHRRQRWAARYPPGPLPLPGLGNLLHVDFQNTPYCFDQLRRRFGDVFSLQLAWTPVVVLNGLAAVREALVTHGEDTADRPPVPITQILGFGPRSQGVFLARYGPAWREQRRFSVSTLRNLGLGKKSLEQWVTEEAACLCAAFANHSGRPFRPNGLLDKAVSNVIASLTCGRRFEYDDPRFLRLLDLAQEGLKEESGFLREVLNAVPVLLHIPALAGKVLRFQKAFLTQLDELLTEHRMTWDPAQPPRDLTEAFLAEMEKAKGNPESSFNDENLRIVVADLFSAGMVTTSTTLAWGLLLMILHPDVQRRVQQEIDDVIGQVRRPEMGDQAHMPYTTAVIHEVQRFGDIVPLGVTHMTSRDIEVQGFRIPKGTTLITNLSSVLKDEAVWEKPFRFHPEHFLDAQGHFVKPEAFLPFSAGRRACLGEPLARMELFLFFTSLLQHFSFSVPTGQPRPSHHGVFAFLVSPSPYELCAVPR
Voltage-gated inwardly rectifying potassium channel KCNH2, sequence (Q12809 whole entry): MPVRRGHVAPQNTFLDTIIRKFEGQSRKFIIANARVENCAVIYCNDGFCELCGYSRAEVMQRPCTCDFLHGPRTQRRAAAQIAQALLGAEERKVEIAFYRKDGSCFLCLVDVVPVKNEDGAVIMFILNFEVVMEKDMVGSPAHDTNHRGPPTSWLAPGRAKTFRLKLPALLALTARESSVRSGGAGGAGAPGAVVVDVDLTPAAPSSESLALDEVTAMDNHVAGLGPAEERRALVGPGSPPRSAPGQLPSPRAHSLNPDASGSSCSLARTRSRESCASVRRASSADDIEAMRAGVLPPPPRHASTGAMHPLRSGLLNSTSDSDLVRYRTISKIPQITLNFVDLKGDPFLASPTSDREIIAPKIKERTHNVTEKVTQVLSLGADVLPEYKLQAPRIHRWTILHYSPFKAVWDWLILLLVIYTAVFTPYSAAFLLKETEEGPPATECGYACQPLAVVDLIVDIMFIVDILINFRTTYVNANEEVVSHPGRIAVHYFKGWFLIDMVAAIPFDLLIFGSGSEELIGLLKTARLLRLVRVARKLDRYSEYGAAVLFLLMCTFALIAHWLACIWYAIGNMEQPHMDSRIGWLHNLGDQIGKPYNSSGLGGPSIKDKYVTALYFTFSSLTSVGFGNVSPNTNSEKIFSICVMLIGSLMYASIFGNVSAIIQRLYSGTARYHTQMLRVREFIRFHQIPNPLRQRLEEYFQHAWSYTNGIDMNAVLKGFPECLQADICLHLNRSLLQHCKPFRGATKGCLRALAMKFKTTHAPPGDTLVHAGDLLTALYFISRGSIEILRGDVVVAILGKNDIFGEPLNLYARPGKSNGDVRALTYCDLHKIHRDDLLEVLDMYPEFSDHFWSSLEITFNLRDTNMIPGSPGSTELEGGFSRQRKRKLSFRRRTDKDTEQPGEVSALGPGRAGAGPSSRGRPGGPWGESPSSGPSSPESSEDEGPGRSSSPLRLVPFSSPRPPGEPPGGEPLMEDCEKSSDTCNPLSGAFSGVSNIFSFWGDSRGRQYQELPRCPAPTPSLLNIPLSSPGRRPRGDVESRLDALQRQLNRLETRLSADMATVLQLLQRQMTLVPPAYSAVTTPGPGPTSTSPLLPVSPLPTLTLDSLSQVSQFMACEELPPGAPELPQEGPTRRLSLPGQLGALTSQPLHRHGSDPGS

By IC50 is commonly meant the concentration that inhibits the measured activity by half. The bioavailability is dose-corrected exposure relative to a reference, in per cent. On to `CC(C)(C)NS(=O)(=O)c1cncc(-c2cc(F)c3nc(N)nn3c2)c1`, for which the “inhibition (INH)” value (on Cytochrome P450 2D6; in data set [5]; against Cytochrome P450 2C9; at Cytochrome P450 3A4; at Cytochrome P450 1A; against Cytochrome P450 2C19) was “Not Active” each time. The figures for the half-inhibitory concentration (IC50) in data set [1] and in data set [13] were over 10000 nM and 1260 nM, respectively. Moreover, the Activity entry in the data set on Salmonella typhimurium [2] is “Non-toxic”; in the data set with Salmonella typhimurium [4], “Non-toxic”; in the data set with Mus musculus, 38%; in the data set with Salmonella typhimurium [9] it was “Non-toxic”; in the data set with Salmonella typhimurium [10] it was “Non-toxic”; in the data set with Salmonella typhimurium [11], “Non-toxic”. For the same compound, the Activity entry in the data set on Salmonella typhimurium [12] is reported as “Non-toxic”. Moreover, the Ratio IC50 in the data set listed under Homo sapiens [3] and in the data set filed under Homo sapiens [8] was 100 each time. This compound also gave a bioavailability in [6] of 37%. For the same compound, the clearance in [7] came out at 14 mL/min/kg. In the data set on Caco-2, the permeability entry is “permeable”. For the same compound, in data set [14], the solubility thermodynamic is under 5 µg/mL.
With `Nc1nc2ccc(-c3cncc(NS(=O)(=O)c4ccc(Cl)cc4)c3)cn2n1`, the IC50 in data set [1] was 158 nM; in data set [15] it was 398 nM; in [16] it was 6.31 nM; in [18], 2000 nM. Also, in data set [17], the fraction unbound was under 0.01.
The half-life is how long it takes for the measured level to halve. Take `CC(C)(C)NS(=O)(=O)c1cncc(-c2ccc3nc(N)nn3c2)c1`: the half-life in data set [19], in [20] and in data set [21] was over 45 min each time. The “inhibition (INH)” value (against Cytochrome P450 2D6; in data set [5]; against Cytochrome P450 2C9; on Cytochrome P450 3A4; against Cytochrome P450 1A; on Cytochrome P450 2C19) was “Not Active” each time. The Activity entry is listed as “Non-toxic” in the data set with Salmonella typhimurium [2]; “Non-toxic” in the data set on Salmonella typhimurium [4]; 53% with Mus musculus; “Non-toxic” in the data set with Salmonella typhimurium [9]; “Non-toxic” in the data set on Salmonella typhimurium [10]; “Non-toxic” with Salmonella typhimurium [11]. For the same compound, in the data set with Salmonella typhimurium [12], the Activity entry is “Non-toxic”. This compound also had a clearance in data set [22] of 11.5 mL/min/kg. Further, the permeability entry in the data set with Caco-2 is “permeable”. The solubility thermodynamic in data set [14] was 9 µg/mL (≈ 26 µM). Moreover, in [23], the bioavailability was 88%. Also, the IC50 in data set [18] is 2000 nM.
Consider `CC(C)NS(=O)(=O)c1cncc(-c2ccc3nc(N)nn3c2)c1`, for which the half-life in [19], in [20] and in data set [21] was over 45 min throughout. Besides, the IC50 in data set [1] was 2510 nM; in data set [15], 1580 nM; in [16], 31.6 nM; in data set [18], 1580 nM.
As for `CC(=O)Nc1nc2ccc(-c3cncc(S(C)(=O)=O)c3)cn2n1`, the half-life in data set [19], in data set [20] and in data set [21] was over 45 min in each case.
